Assay results: US5695970A, “Glucan lyase producing 1,5-anhydrofructose” (priority 1992, dated 1997)
Entries after “also recorded” stand apart in the source; their conditions may differ.

Experiments:
α-1,4-glucan lyase [1] = assay: Substrate specificity of α-1,4-glucan lyase, long term incubation (24 h), continuation of Table IV; format: biochemical, Gracilariopsis lemaneiformis; conditions: for activity of the lyase with the substrate (in words): long term incubation at 30° C.; for Product released: 24 h; for release of 1,5-anhydrofructose and glucose checked by TLC on Silica gel 60: after 24 h of incubation
Description: The incubation time was 24 h.
(§1) The reaction mixture for the assay of α-1,4-glucan lyase was composed of 240 μl 62.5 mM Mops-NaOH containing 6 mg soluble starch (pH 6.2), the enzyme preparation and distilled water to a final volume of 300 μl. The reaction was carried out at 30° C. for 10-30 min. Liberated 1,5-anhydrofructose was determined by monitoring the absorbance at 546 nm after the addition of 3,5-dinitrosalicylic acid reagent. Soluble starch in the reaction mixture may be replaced by other substrates and the final substrate concentration may be varied as indicated in the text. The reaction time and enzyme concentration used in enzyme activity assay have been chosen to ensure the linearity of the reaction rate. One unit of α-1,4-glucan lyase activity is defined as the amount of enzyme which liberates 1μmol of 1,5-anhydrofructose min^-1 under the conditions described above.

α-1,4-glucan lyase [2] = assay: Inhibition studies of α-1,4-glucan lyase activity; format: biochemical, Gracilariopsis lemaneiformis; conditions: for inhibition of enzymic activity: 0.1M; for inhibition of the algal enzyme (in words): summary statement; for inhibition of the enzyme: 50mM; for inhibition of enzyme activity: inhibitor 2 mM
Description: as §1

[3] = substrate 4 mg ml^-1, 1.64 μg enzyme

Compound: blocked p-nitrophenyl-α-D-maltoheptaoside [BPNPG7]
- activity of the lyase with the substrate (in words) (α-1,4-glucan lyase [1]): very low degrading rate; also recorded: little or no activity
- Product released (α-1,4-glucan lyase [1]; substrate 2 mM, 4.91 μg enzyme): 6.16 nmol

Compound: OC[C@H]1O[C@H](OC[C@H]2OC(O)[C@H](O)[C@@H](O)[C@@H]2O)[C@H](O)[C@@H](O)[C@H]1O (stereo partly drawn) [Melibiose, melibiose]
- inhibition of enzymic activity (α-1,4-glucan lyase [2]; amylopectin as substrate): no inhibition
- inhibition of enzymic activity (α-1,4-glucan lyase [2]; maltose as substrate): no inhibition
- release of 1,5-anhydrofructose and glucose checked by TLC on Silica gel 60 (α-1,4-glucan lyase [1]): No 1,5-anhydrofructose and glucose were released
- Product released (α-1,4-glucan lyase [1]; substrate 10 mg ml^-1, 1.64 μg enzyme): 0 nmol

Compound: OC[C@H]1O[C@@H](O[C@H]2[C@H](O)[C@@H](O)C(O)O[C@@H]2CO)[C@H](O)[C@@H](O)[C@@H]1O (stereo partly drawn) [Cellobiose, cellobiose]
- release of 1,5-anhydrofructose and glucose checked by TLC on Silica gel 60 (α-1,4-glucan lyase [1]): No 1,5-anhydrofructose and glucose were released
- Product released (α-1,4-glucan lyase [1]; [3]): 0 nmol

Compound: [Cl][Hg][Cl] [HgCl2]
- inhibition of the algal enzyme (in words) (α-1,4-glucan lyase [2]; no concentration): strongly inhibited

Compound: [Ca+2].[Cl-].[Cl-] [CaCl2]
- inhibition of the enzyme (α-1,4-glucan lyase [2]; amylopectin as substrate): no inhibition
- inhibition of the enzyme (α-1,4-glucan lyase [2]; maltose as substrate): no inhibition

Compound: xylose
- inhibition of enzymic activity (α-1,4-glucan lyase [2]; amylopectin as substrate): no inhibition
- inhibition of enzymic activity (α-1,4-glucan lyase [2]; maltose as substrate): no inhibition

Compound: OCC(O)CO [glycerol]
- inhibition of enzymic activity (α-1,4-glucan lyase [2]; amylopectin as substrate): no inhibition
- inhibition of enzymic activity (α-1,4-glucan lyase [2]; maltose as substrate): no inhibition

Compound: O[C@H]1[C@H](O)[C@@H](O)[C@H](O)[C@@H](O)[C@H]1O [inositol]
- inhibition of enzymic activity (α-1,4-glucan lyase [2]; amylopectin as substrate): no inhibition
- inhibition of enzymic activity (α-1,4-glucan lyase [2]; maltose as substrate): no inhibition

Compound: arabinose
- inhibition of enzymic activity (α-1,4-glucan lyase [2]; amylopectin as substrate): no inhibition
- inhibition of enzymic activity (α-1,4-glucan lyase [2]; maltose as substrate): no inhibition

Compound: O=C(O)c1cc[c]([Hg][Cl])cc1 [PCMB, p-chloromercuribenzoic acid]
- inhibition of enzyme activity (α-1,4-glucan lyase [2]; amylopectin as substrate): around 90%
- inhibition of enzyme activity (α-1,4-glucan lyase [2]; maltose as substrate): around 90%
- inhibition of the algal enzyme (in words) (α-1,4-glucan lyase [2]; no concentration): strongly inhibited

Compound: [Cl-].[Cl-].[Mg+2] [MgCl2]
- inhibition of the enzyme (α-1,4-glucan lyase [2]; amylopectin as substrate): no inhibition
- inhibition of the enzyme (α-1,4-glucan lyase [2]; maltose as substrate): no inhibition

Compound: OC[C@@H](O)[C@@H](O[C@H]1O[C@H](CO)[C@@H](O)[C@H](O)[C@H]1O)[C@H](O)[C@@H](O)CO [Maltitol, maltitol]
- inhibition of enzymic activity (α-1,4-glucan lyase [2]; amylopectin as substrate): ~27%
- inhibition of enzymic activity (α-1,4-glucan lyase [2]; maltose as substrate): around 47%
- type of inhibition (α-1,4-glucan lyase [2]; maltose as substrate): competitive
- inhibition of the algal enzyme (in words) (α-1,4-glucan lyase [2]; maltose as substrate): inhibited
- Product released (α-1,4-glucan lyase [1]; [3]): 122.4 nmol

Compound: O=[N+]([O-])c1ccc(O[C@H]2O[C@H](CO)[C@H](O)[C@H](O)[C@H]2O)cc1 [PNPGal, p-nitrophenyl-α-D-galactoside]
- activity of the lyase with the substrate (in words) (α-1,4-glucan lyase [1]): no activity
- Product released (α-1,4-glucan lyase [1]; substrate 2 mM, 1.64 μg enzyme): 0 nmol

Compound: [Cl][Mn][Cl] [MnCl2]
- inhibition of the enzyme (α-1,4-glucan lyase [2]; amylopectin as substrate): no inhibition
- inhibition of the enzyme (α-1,4-glucan lyase [2]; maltose as substrate): no inhibition

Compound: [Cl-].[K+] [KCl]
- inhibition of the enzyme (α-1,4-glucan lyase [2]; amylopectin as substrate): no inhibition
- inhibition of the enzyme (α-1,4-glucan lyase [2]; maltose as substrate): no inhibition

Compound: OC[C@H]1O[C@H](OC[C@H]2O[C@H](O[C@H]3[C@H](O)[C@@H](O)C(O)O[C@@H]3CO)[C@H](O)[C@@H](O)[C@@H]2O)[C@H](O)[C@@H](O)[C@@H]1O (stereo partly drawn) [Panose, panose]
- Product released (α-1,4-glucan lyase [1]; [3]): 13465.6 nmol
